How the values were obtained:
Assay type in all cases: in vivo
[1] = system: Diamond Back Moth (Plutella xylostella); test: Action on diamond back moth, dipped cabbage leaves; conditions: 3rd instar larvae, 72 hours after treatment, read-out: mortality in comparison with untreated controls
Method: Example B9: Action on Diamond Back Moth (Plutella xylostella)
The active compound is dissolved at the desired concentration in a mixture of 1:1 (vol:vol) distilled water:acetone. Surfactant (Kinetic® HV) is added at a rate of 0.01% (vol/vol). The test solution is prepared at the day of use.
Leaves of cabbage were dipped in test solution and air-dried. Treated leaves were placed in petri dishes lined with moist filter paper and inoculated with ten 3rd instar larvae. Mortality was recorded 72 hours after treatment. Feeding damages were also recorded using a scale of 0-100%.

[2] = system: Silverleaf Whitefly (Bemisia argentifolii) (Adults); test: Action on silverleaf whitefly adults, sprayed cotton plants; conditions: 72 h, 3 days after treatment, read-out: mortality in comparison with untreated controls
Method: Example B4: Action on Silverleaf Whitefly (Bemisia argentifolii) (Adults)
(§1) The active compounds were formulated by a Tecan liquid handler in 100% cyclohexanone as a 10,000 ppm solution supplied in tubes. The 10,000 ppm solution was serially diluted in 100% cyclohexanone to make interim solutions. These served as stock solutions for which final dilutions were made by the Tecan in 50% acetone:50% water (v/v) into 5 or 10 ml glass vials. A nonionic surfactant (Kinetic®) was included in the solution at a volume of 0.01% (v/v). The vials were then inserted into an automated electrostatic sprayer equipped with an atomizing nozzle for application to plants/insects.
Cotton plants at the cotyledon stage (one plant per pot) were sprayed by an automated electrostatic plant sprayer equipped with an atomizing spray nozzle. The plants were dried in the sprayer fume hood and then removed from the sprayer. Each pot was placed into a plastic cup and about 10 to 12 whitefly adults (approximately 3-5 days old) were introduced. The insects were collected using an aspirator and a nontoxic Tygon® tubing connected to a barrier pipette tip. The tip, containing the collected insects, was then gently inserted into the soil containing the treated plant, allowing insects to crawl out of the tip to reach the foliage for feeding. Cups were covered with a reusable screened lid. Test plants were maintained in a growth room at about 25° C. and about 20-40% relative humidity for 3 days, avoiding direct exposure to fluorescent light (24 hour photoperiod) to prevent trapping of heat inside the cup. Mortality was assessed 3 days after treatment, compared to untreated control plants.

[3] = system: tobacco budworm (Heliothis virescens); test: Action on tobacco budworm, eggs on insect diet in 96-well microtiter plates; conditions: 120 h, egg and larval mortality visually assessed after 5 days, read-out: mortality in comparison with untreated controls
Method: Example B6: Action on Tobacco Budworm (Heliothis virescens)
For evaluating control of tobacco budworm (Heliothis virescens) the test unit consisted of 96-well-microtiter plates containing an insect diet and 15-25 H. virescens eggs.
The compounds were formulated using a solution containing 75% v/v water and 25% v/v DMSO. Different concentrations of formulated compounds were sprayed onto the insect diet at 10 μl, using a custom built micro atomizer, at two replications.
After application, microtiter plates were incubated at about 28±1° C. and about 80±5% relative humidity for 5 days. Egg and larval mortality was then visually assessed.

[4] = system: Southern Armyworm (Spodoptera eridania), 2nd instar larvae; test: Action on southern armyworm 2nd instar larvae, sprayed lima bean plants; conditions: 96 h, 4 days after treatment, read-out: mortality in comparison with untreated controls
Method: Example B10: Action on Southern Armyworm (Spodoptera eridania), 2nd Instar Larvae
as §1, with “into 10” for “into 5”, “or 20” for “or 10”
Lima bean plants (variety Sieva) were grown 2 plants to a pot and selected for treatment at the 1st true leaf stage. Test solutions were sprayed onto the foliage by an automated electrostatic plant sprayer equipped with an atomizing spray nozzle. The plants were dried in the sprayer fume hood and then removed from the sprayer. Each pot was placed into perforated plastic bags with a zip closure. About 10 to 11 armyworm larvae were placed into the bag and the bags zipped closed. Test plants were maintained in a growth room at about 25° C. and about 20-40% relative humidity for 4 days, avoiding direct exposure to fluorescent light (24 hour photoperiod) to prevent trapping of heat inside the bags. Mortality and reduced feeding were assessed 4 days after treatment, compared to untreated control plants.

[5] = system: boll weevil (Anthonomus grandis); test: Action on boll weevil, eggs on insect diet in 96-well microtiter plates; conditions: 120 h, 800 ppm, egg and larval mortality visually assessed after 5 days, read-out: mortality in comparison with untreated controls
Method: Example B3: Action on Boll Weevil (Anthonomus grandis)
For evaluating control of boll weevil (Anthonomus grandis) the test unit consisted of 96-well-microtiter plates containing an insect diet and 5-10 A. grandis eggs.
(§2) The compounds were formulated using a solution containing 75% v/v water and 25% v/v DMSO. Different concentrations of formulated compounds were sprayed onto the insect diet at 5 μl, using a custom built micro atomizer, at two replications.
After application, microtiter plates were incubated at about 25±1° C. and about 75±5% relative humidity for 5 days. Egg and larval mortality was then visually assessed.

[6] = system: yellow fever mosquito (Aedes aegypti); test: whole plant or invertebrate; conditions: 48 h, larval mortality visually assessed after 2 days, read-out: mortality in comparison with untreated controls
Method: Example B1: Action on Yellow Fever Mosquito (Aedes aegypti)
For evaluating control of yellow fever mosquito (Aedes aegypti) the test unit consisted of 96-well-microtiter plates containing 200 μl of tap water per well and 5-15 freshly hatched A. aegypti larvae.
The active compounds were formulated using a solution containing 75% (v/v) water and 25% (v/v) DMSO. Different concentrations of formulated compounds or mixtures were sprayed onto the insect diet at 2.5 μl, using a custom built micro atomizer, at two replications.
After application, microtiter plates were incubated at 28+1° C., 80+5% RH for 2 days. Larval mortality was then visually assessed.

[7] = system: Mediterranean fruitfly (Ceratitis capitata); test: Action on Mediterranean fruitfly, eggs on insect diet in microtiter plates; conditions: 120 h, egg and larval mortality visually assessed after 5 days, read-out: mortality in comparison with untreated controls
Method: Example B5: Action on Mediterranean Fruitfly (Ceratitis capitata)
For evaluating control of Mediterranean fruitfly (Ceratitis capitata) the test unit consisted of microtiter plates containing an insect diet and 50-80 C. capitata eggs.
as §2
After application, microtiter plates were incubated at about […] and about 80+5% relative humidity for 5 days. Egg and larval mortality was then visually assessed.

[8] = system: Orchid Thrips (Dichromothrips corbetti); test: Action on orchid thrips, floral-immersion technique; conditions: adult thrips, 72 hours after treatment, read-out: mortality in comparison with untreated controls
Method: Example B2: Action on Orchid Thrips (Dichromothrips Corbetti)
Dichromothrips corbettiadults used for bioassay were obtained from a colony maintained continuously under laboratory conditions. For testing purposes, the test compound is diluted in a 1:1 mixture of acetone:water (vol:vol), plus Kinetic® HV at a rate of 0.01% v/v.
Thrips potency of each compound was evaluated by using a floral-immersion technique. All petals of individual, intact orchid flowers were dipped into treatment solution and allowed to dry in Petri dishes. Treated petals were placed into individual re-sealable plastic along with about 20 adult thrips. All test arenas were held under continuous light and a temperature of about 28° C. for duration of the assay. After 3 days, the numbers of live thrips were counted on each petal. The percent mortality was recorded 72 hours after treatment.

CC(C)c1ccccc1NC(=S)N/N=C/c1ccc2c(ccc3c2ncn3-c2ccc(OC(F)(F)F)cc2)n1 [Compound C-3, 1-(2-isopropylphenyl)-3-[(E)-[3-[4-(trifluoromethoxy)phenyl]imidazo[4,5-f]quinolin-7-yl]methyleneamino]thiourea]
≥ 75%: mortality at 500 ppm [1] | mortality at 500 ppm [2] | mortality at 800 ppm [3] | mortality at 500 ppm [4] | mortality at 800 ppm [5]

CC(C)c1ccccc1N1C(=O)CS/C1=N\N=C\c1ccc2c(ccc3c2ncn3-c2ccc(OC(F)(F)F)cc2)n1 [Compound C-4, (2Z)-3-(2-isopropylphenyl)-2-[(E)-[3-[4-(trifluoromethoxy)phenyl]imidazo[4,5-f]quinolin-7-yl]methylenehydrazono]thiazolidin-4-one]
≥ 75%: mortality at 800 ppm [6] | mortality at 500 ppm [1] | mortality at 500 ppm [2] | mortality at 800 ppm [3] | mortality at 500 ppm [4] | mortality at 800 ppm [7] | mortality at 800 ppm [5] | mortality at 500 ppm [8]

CC(C)c1ccccc1/N=C1\SCC(=O)N1/N=C/c1ccc2c(ccc3c2ncn3-c2ccc(OC(F)(F)F)cc2)n1 [Compound C-8, (2Z)-2-(2-isopropylphenyl)imino-3-[(E)-[3-[4-(trifluoromethoxy)phenyl]imidazo[4,5-f]quinolin-7-yl]methyleneamino]thiazolidin-4-one]
≥ 75%: mortality at 800 ppm [6] | mortality at 500 ppm [1] | mortality at 500 ppm [2] | mortality at 800 ppm [3] | mortality at 500 ppm [4] | mortality at 800 ppm [7] | mortality at 800 ppm [5] | mortality at 500 ppm [8]

CC(C)c1ccccc1/N=C1\SCC(=O)N1/N=C/c1cnc2c(ccc3c2ncn3-c2ccc(OC(F)(F)F)cc2)c1 [Compound C-16, (2Z)-2-(2-isopropylphenyl)imino-3-[(E)-[3-[4-(trifluoromethoxy)phenyl]imidazo[4,5-h]quinolin-7-yl]methyleneamino]thiazolidin-4-one]
≥ 75%: mortality at 800 ppm [6] | mortality at 500 ppm [1] | mortality at 500 ppm [2] | mortality at 800 ppm [3] | mortality at 500 ppm [4] | mortality at 800 ppm [7] | mortality at 800 ppm [5] | mortality at 500 ppm [8]

CC(C)c1ccccc1N1C(=O)CS/C1=N\N=C\c1cnc2c(ccc3c2ncn3-c2ccc(OC(F)(F)F)cc2)c1 [Compound C-17, (2Z)-3-(2-isopropylphenyl)-2-[(E)-[3-[4-(trifluoromethoxy)phenyl]imidazo[4,5-h]quinolin-7-yl]methylenehydrazono]thiazolidin-4-one]
≥ 75%: mortality at 800 ppm [6] | mortality at 500 ppm [1] | mortality at 500 ppm [2] | mortality at 800 ppm [3] | mortality at 800 ppm [7] | mortality at 800 ppm [5] | mortality at 500 ppm [8]

CC(C)c1ccccc1NC(=S)N/N=C/c1ccc2c(ccc3c(-c4ccc(OC(F)(F)F)cc4)n(C)nc32)n1 [Compound C-19, 1-(2-isopropylphenyl)-3-[(E)-[2-methyl-3-[4-(trifluoromethoxy)phenyl]pyrazolo[3,4-f]quinolin-7-yl]methyleneamino]thiourea]
≥ 75%: mortality at 800 ppm [6] | mortality at 500 ppm [2] | mortality at 800 ppm [3] | mortality at 500 ppm [4] | mortality at 800 ppm [7] | mortality at 800 ppm [5]

CC(C)c1ccccc1N1C(=O)CS/C1=N\N=C\c1ccc2c(ccc3c(-c4ccc(OC(F)(F)F)cc4)n(C)nc32)n1 [Compound C-20, (2Z)-3-(2-isopropylphenyl)-2-[(E)-[2-methyl-3-[4-(trifluoromethoxy)phenyl]pyrazolo[3,4-f]quinolin-7-yl]methylenehydrazono]thiazolidin-4-one]
≥ 75%: mortality at 800 ppm [6] | mortality at 500 ppm [1] | mortality at 500 ppm [2] | mortality at 800 ppm [3] | mortality at 500 ppm [4] | mortality at 800 ppm [7] | mortality at 800 ppm [5]

Cc1cccc(C)c1N1C(=O)CS/C1=N\N=C\c1cc2ccc3c(ncn3-c3ccc(OC(F)(F)F)cc3)c2cn1 [Compound C-27, (2Z)-3-(2,6-dimethylphenyl)-2-[(E)-[3-[4-(trifluoromethoxy)phenyl]imidazo[4,5-h]isoquinolin-7-yl]methylenehydrazono]thiazolidin-4-one]
≥ 75%: mortality at 800 ppm [6] | mortality at 500 ppm [1] | mortality at 800 ppm [3] | mortality at 500 ppm [4] | mortality at 800 ppm [7] | mortality at 800 ppm [5] | mortality at 500 ppm [8]

Cc1cccc(C)c1/N=C1\SCC(=O)N1/N=C/c1cc2ccc3c(ncn3-c3ccc(OC(F)(F)F)cc3)c2cn1 [Compound C-29, (2Z)-2-(2,6-dimethylphenyl)imino-3-[(E)-[3-[4-(trifluoromethoxy)phenyl]imidazo[4,5-h]isoquinolin-7-yl]methyleneamino]thiazolidin-4-one]
≥ 75%: mortality at 800 ppm [6] | mortality at 500 ppm [1] | mortality at 500 ppm [2] | mortality at 800 ppm [3] | mortality at 500 ppm [4] | mortality at 800 ppm [7] | mortality at 800 ppm [5]
